Laboratory results published in US9327020B2, “Trisaccharide derivates, and their use as adjuvants” (Immunovo B.V., priority 2010, dated 2016).

What was measured:
Assay type in all cases: in vivo, rat
[1] = system: testosterone; assay: Serum testosterone levels (Testosterone EIA) of immunized rats
Description: (§1) The sulpho-lipo based adjuvants were tested in different doses varying from 0.008-8 mg per dose. The adjuvants were tested in combination with a GnRH-KLH conjugate with 0.7 μg conjugated GnRH per dose. Adjuvanticity of the adjuvants was compared with the positive control adjuvant, sulpho-lipo-sucrose (disaccharide with one sulphate ester group and seven lauroyl acid ester groups, S1L7-Su) and with negative control adjuvant consisting of an squalane-in-water emulsion without saccharide compound and one group receiving PBS only.
(§2) Male Wistar rats, 10 weeks of age, were housed with 3 rats per cage. Rats had ad libitum access to food en water. Rats were immunized at day 0, 14 and 28, according to the experimental design (Table 2) with 400 μl vaccine comprising 200 μl water phase and 200 μl adjuvant. Two intramuscular injections (100 μl each) were injected at the left and right inner thigh and 2×100 μl was injected subcutaneously in the neck region. Each group consists of 5 rats.
(§3) Blood samples for serum were collected from all animals prior to the immunizations and at day 41 and 56
Serum testosterone levels were measured using a commercially available Testosterone EIA (Beckman Coulter, Woerden, The Netherlands) according to the instructions of the manufacturer.

[2] = system: GnRH; assay: GnRH specific antibody titers by ELISA in serum of rats immunized with GnRH-KLH conjugate plus adjuvant; conditions: for GnRH antibody titers, dose dependence: male Wistar rats, adjuvant 0.008-8 mg per dose, GnRH-KLH conjugate, FIG. 4A-B; for GnRH antibody titers versus squalane emulsion only (NS): rats that received 8 mg saccharide compound, FIG. 4C; for GnRH antibody titers versus adjuvant without saccharide (NS, group 11): rats treated with 0.08-8 mg sulpho-lipo-trisaccharide
Description: as §1
Vaccines 1-13 were formulated by adding equal volume of adjuvant (comprising the saccharide compounds as shown in table 2) to the water phase (containing 0.7 μg conjugated GnRH). Vaccine 14 consists of PBS only. The following vaccines were prepared:
as §2, §3
GnRH specific antibodies were measured by ELISA. Plates (96 wells) were precoated with 0.2% glutardialdehyde in phosphate buffer (pH 5) for 3 hours at room temperature, washed with 0.1 M phosphate buffer (pH 8) and coated with 100 μl per well of a solution containing 10 μg GnRH (Pepscan Presto, Lelystad, The Netherlands) per ml phosphate buffer (pH 8) and incubated for 3 hours at 37° C. Coated plates were washed with 0.05% Tween-80. Serum samples were diluted (1/10) in PEM (1% Tween-80 with 4% horse serum). This dilution was further diluted in the 96-well plate (100 μl per well, 8 steps) and incubated 1 hour at 37° C. After washing with 0.05% Tween-80, 100 μl of goat-anti-rat antiserum conjugated with peroxidase in PEM was added to the wells. Plates were incubated for 1 h at 37° C. and washed 12 times with 0.05% Tween-80. Subsequently, 150 μl of a substrate solution containing 2,2-azino-bis-(3-benzthiazoline-6-sulphonic acid) (ABTS) plus H2O2 was added to the wells of the plates. Plates were incubated for 45 minutes at ambient room temperature and absorbance was measured at 405 nm. Antibody titer was expressed as the 10 log of the dilution factor that gives an optical density of 4 times background (approx. 100).

[3] = Rise of mean body temperature (rectal) after immunization; conditions: 8 mg; for Mean body temperature (MBT): FIG. 6C
Description: as §2
At least once daily clinical observations were made in all animals. Mean body temperature (MBT) was determined for all animals before and after each immunization by rectal temperature. Mean body temperature per group (MBT) are depicted as to preimmunization levels FIG. 6.

[4] = Injection site reactions (tissue swelling) after immunization; conditions: 8 mg
Description: as §2
Before vaccination the injection sites were assessed for the presence of abnormalities or existing local reactions. If such abnormalities or local reactions were absent, the animal was injected on that site. After each immunization, injection sites were inspected for tissue swelling. Size of subcutaneous injection sites was measured (diameter in mm). Since the intramuscular injection site reactions in the hind leg is difficult to determine, only the presence of intramuscular injections sites (tissue swelling) was determined and expressed in arbitrary values (present=10 mm, not present=0 mm) Scores of injection site reactions were added up per rat for the four injection sites at each inspection, means per group were calculated The results thereof are presented in FIG. 7.

[5] = from 0.08 mg sulpho-lipo-trisaccharide onwards, FIG. 5A-B

Mean body temperature (MBT) ([3]; 21 hours after vaccination)	Injection site reactions, course of size ([4]; FIG. 7C)	Injection site reactions, size relative to sulpho-lipo-trisaccharides ([4]; FIG. 7C)	Mean body temperature (MBT), any increase ([3]; after immunization)	Compound	Serum testosterone levels [1, 5]	GnRH antibody titers, dose dependence [2]	GnRH antibody titers versus squalane emulsion only (NS) [2]	GnRH antibody titers versus adjuvant without saccharide (NS, group 11) [2]	Mean body temperature (MBT) ([3]; 3 hours post vaccination)	Injection site reactions at final inspection ([4]; 5 days after immunization)	Serum testosterone levels ([1]; 8 mg, FIG. 5C)	Adverse effects at the site of injection [4]
–	–	–	–	Sulpho-Lipo-Raffinose [Example S1L10-Ra]	dramatic decline of serum testosterone levels	dose dependent antibody titers against GnRH	substantially higher	substantially higher	–	–	–	–
–	–	–	–	Sulpho-Lipo-Maltotriose [Example S1L10-Ma]	dramatic decline of serum testosterone levels	dose dependent antibody titers against GnRH	substantially higher	substantially higher	–	–	–	–
still increased	increased in size up to day 4	more than 4 times	–	sulpho-lipo-sucrose [Example S1L7-Su-8]	–	–	–	–	slightly higher increase in MBT than the trisaccharide compounds	still significant injection site reactions were present	–	–
–	–	–	did not induce any increase in MBT	CCCCCCCCCCCC(=O)OC[C@H]1O[C@H](OC[C@H]2O[C@H](O[C@]3(COC(=O)CCCCCCCCCCC)O[C@H](COC(=O)CCCCCCCCCCC)[C@@H](OC(=O)CCCCCCCCCCC)[C@@H]3OC(=O)CCCCCCCCCCC)[C@H](OC(=O)CCCCCCCCCCC)[C@@H](OC(=O)CCCCCCCCCCC)[C@@H]2OC(=O)CCCCCCCCCCC)[C@H](OC(=O)CCCCCCCCCCC)[C@@H](OC(=O)CCCCCCCCCCC)[C@H]1OC(=O)CCCCCCCCCCC [Example L11-Ra, Lipo-Raffinose]	–	–	substantially higher	–	–	–	induced decreasing testosterone levels	did not induce any adverse effects at the site of injection
